From PubChem BioAssay (NCI)
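48-hour exposure; five concentrations; linearly interpolated endpoints. The concentration for full growth arrest is given as TGI.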

Columns and labels:
Assay in all cases: inhibition of tumour cell growth, NCI panel, 48 h
SW-620 colon = tested on: SW-620 colon
K-562 leukemia = tested on: K-562 leukemia
OVCAR-4 ovarian = tested on: OVCAR-4 ovarian
LOX IMVI melanoma = tested on: LOX IMVI melanoma
OVCAR-5 ovarian = tested on: OVCAR-5 ovarian
NCI-H522 lung = tested on: NCI-H522 lung
SF-295 CNS = tested on: SF-295 CNS
RXF 393 renal = tested on: RXF 393 renal
NCI-H23 lung = tested on: NCI-H23 lung
EKVX NSCLC = tested on: EKVX NSCLC
U251 CNS = tested on: U251 CNS
SN12C renal = tested on: SN12C renal
HCC-2998 colon = tested on: HCC-2998 colon
TK-10 renal = tested on: TK-10 renal
MCF7 breast = tested on: MCF7 breast
SF-268 CNS = tested on: SF-268 CNS
MDA-N = tested on: MDA-N
HCT-15 colon = tested on: HCT-15 colon
HOP-62 NSCLC = tested on: HOP-62 NSCLC
DU-145 prostate = tested on: DU-145 prostate
RPMI-8226 leukemia = tested on: RPMI-8226 leukemia
BT-549 breast = tested on: BT-549 breast
UACC-257 melanoma = tested on: UACC-257 melanoma
SNB-19 CNS = tested on: SNB-19 CNS
MDA-MB-231 breast = tested on: MDA-MB-231 breast
HCT-116 colon = tested on: HCT-116 colon
SR leukemia = tested on: SR leukemia
A498 renal = tested on: A498 renal
OVCAR-3 ovarian = tested on: OVCAR-3 ovarian
HOP-92 NSCLC = tested on: HOP-92 NSCLC
PC-3 prostate = tested on: PC-3 prostate
HT29 colon = tested on: HT29 colon
SK-MEL-28 melanoma = tested on: SK-MEL-28 melanoma
COLO 205 colon = tested on: COLO 205 colon
IGROV1 ovarian = tested on: IGROV1 ovarian
CAKI-1 renal = tested on: CAKI-1 renal
UO-31 renal = tested on: UO-31 renal
UACC-62 melanoma = tested on: UACC-62 melanoma
786-0 renal = tested on: 786-0 renal
MDA-MB-435 = tested on: MDA-MB-435
ACHN renal = tested on: ACHN renal
NCI-H226 lung = tested on: NCI-H226 lung
HL-60(TB) leukemia = tested on: HL-60(TB) leukemia
SK-OV-3 ovarian = tested on: SK-OV-3 ovarian
NCI-H460 lung = tested on: NCI-H460 lung
SK-MEL-5 melanoma = tested on: SK-MEL-5 melanoma
MALME-3M melanoma = tested on: MALME-3M melanoma
SK-MEL-2 melanoma = tested on: SK-MEL-2 melanoma

[N-]=[N+]=CC(=O)OC1CCc2ccccc21 (stereo not drawn)
TGI (SW-620 colon): > 100 µM | TGI (K-562 leukemia): > 100 µM | TGI (OVCAR-4 ovarian): > 100 µM | TGI (LOX IMVI melanoma): > 100 µM | TGI (OVCAR-5 ovarian): > 100 µM | TGI (NCI-H522 lung): > 100 µM | TGI (SF-295 CNS): > 100 µM | TGI (RXF 393 renal): > 100 µM | TGI (NCI-H23 lung): > 100 µM | TGI (EKVX NSCLC): > 100 µM | TGI (U251 CNS): > 100 µM | TGI (SN12C renal): > 100 µM | TGI (HCC-2998 colon): > 100 µM | TGI (TK-10 renal): > 100 µM | TGI (MCF7 breast): > 100 µM | TGI (SF-268 CNS): > 100 µM | TGI (MDA-N): > 100 µM | TGI (HCT-15 colon): > 100 µM | TGI (HOP-62 NSCLC): > 100 µM | TGI (DU-145 prostate): 48.7 µM | TGI (RPMI-8226 leukemia): > 100 µM | TGI (BT-549 breast): > 100 µM | TGI (UACC-257 melanoma): > 100 µM | TGI (SNB-19 CNS): > 100 µM | TGI (MDA-MB-231 breast): > 100 µM | TGI (HCT-116 colon): > 100 µM | TGI (SR leukemia): > 100 µM | TGI (A498 renal): > 100 µM | TGI (OVCAR-3 ovarian): > 100 µM | TGI (HOP-92 NSCLC): > 100 µM | TGI (PC-3 prostate): > 100 µM | TGI (HT29 colon): > 100 µM | TGI (SK-MEL-28 melanoma): > 100 µM | TGI (COLO 205 colon): > 100 µM | TGI (IGROV1 ovarian): > 100 µM | TGI (CAKI-1 renal): 52.5 µM | TGI (UO-31 renal): 29 µM | TGI (UACC-62 melanoma): > 100 µM | TGI (786-0 renal): > 100 µM | TGI (MDA-MB-435): > 100 µM | TGI (ACHN renal): 30.3 µM | TGI (NCI-H226 lung): > 100 µM | TGI (HL-60(TB) leukemia): > 100 µM | TGI (SK-OV-3 ovarian): > 100 µM | TGI (NCI-H460 lung): > 100 µM | TGI (SK-MEL-5 melanoma): > 100 µM | TGI (MALME-3M melanoma): > 100 µM | TGI (SK-MEL-2 melanoma): > 100 µM
